Results as given in patent US20240101576A1, “HETEROCYCLIC INHIBITORS OF EGFR AND/OR HER2, FOR USE IN THE TREATMENT OF CANCER” (Scorpion Therapeutics, Inc., priority 2020, published 2024).

Key:
Format in all cases: cell-based
EGFR WT (Ba/F3 cells) = molecular target: T1, EGFR WT (Ba/F3 cells) (Homo sapiens, UniProt P00533); assay: Inhibitor activity on EGFR-dependent cell growth (CellTiter-Glo, 72 h), Ba/F3 EGFR WT; details: read-out: BaF3 WT IC50
T1 construct: expressed in transfected cells; host or cells: Ba/F3 (murine pro-B cells), retroviral transduction, puromycin selection, maintained with EGF
Outline: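 This growth assay used Ba/F3 cells that depend on wild-type EGFR and are kept in EGF without IL3. Compounds were made up as 10 mM DMSO stocks and diluted 3-fold over 10 points. 120 nL went onto 600 cells/well. After 72 hours, 40 μL CellTiter-Glo was added and luminescence read on EnVision after 30 min.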

[1] = molecular target: T2, EGFR exon 20 SVD Ins D770_N771 (Ba/F3 cells) (Homo sapiens, UniProt P00533, INS770SVD); assay: Inhibitor activity on EGFR-dependent cell growth (CellTiter-Glo, 72 h), Ba/F3 EGFR exon 20 SVD Ins; details: read-out: BaF3 SVD IC50
T2 construct: expressed in transfected cells; host or cells: Ba/F3 (murine pro-B cells), retroviral transduction, puromycin selection, IL3-independent pool
Outline: (§1)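 IC50s derive from a sigmoidal dose–response fit of CellTiter-Glo signal. The signal was normalised between […]-treated cells and cell-free medium. Ba/F3 mutant-EGFR cells, seeded at 400–800/well depending on the line, had 72 h of exposure to a 10-point, 3-fold compound series.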

[2] = molecular target: T3, EGFR exon 20 NPG Ins D770_N771 (Ba/F3 cells) (Homo sapiens, UniProt P00533, INS770NPG); assay: Inhibitor activity on EGFR-dependent cell growth (CellTiter-Glo, 72 h), Ba/F3 EGFR exon 20 NPG Ins; details: read-out: BaF3 NPG IC50
T3 construct: expressed in transfected cells; host or cells: Ba/F3 (murine pro-B cells), retroviral transduction, puromycin selection, IL3-independent pool
Source text: Example A. Inhibitor Activity on EGFR-Dependent Cell Growth
Cell lines are generated by transducing Ba/F3 cells with retroviruses containing vectors with EGFR WT, EGFR L858R, EGFR exon 19del, EGFR L858R/C797S, EGFR exon 20 NPG Ins D770_N771, EGFR exon 20 ASV Ins V769_D770, EGFR exon 20 SVD Ins D770_N771, or EGFR exon 20 FQEA Ins A763_V764 genes and a puromycin selection marker. Transduced cells are selected with puromycin for 7 days and are then be transferred into culture media without Interleukin 3 (IL3). EGFR WT cells are maintained with supplemental EGF. Surviving cells are confirmed to express EGFR by Western blot and maintained as a pool. The IC50 date were included in Table 6 and Table 7.
1.1 Cells are harvested from flask into cell culture medium and the cell number counted.
1.2 Cells are diluted with culture medium to the desired density and 40 μL of cell suspension is added into each well of 384-well cell culture plate and the seeding density is 800 (FQEA, exon 19del), 600 (WT, NPG, L858R/C797S), or 400 (ASV, SVD, L858R) cells/well.
2 Compound Preparation and Treatment
2.1 Test compounds are dissolved to 10 mM in a DMSO stock solution. 45 μL of stock solution is transferred to a 384 polypropylene plate (pp-plate). Perform 3-fold, 10-point dilution via transferring 15 μL compound into 30 μL DMSO using a TECAN (EVO200) liquid handler.
2.2 Spin plates at room temperature at 1,000 RPM for 1 minute.
2.3 Transfer 120 nL of diluted compound from compound source plate into the cell plate.
2.4 After compound treatment for 72 hours, perform CTG detection for compound treatment plates as described in “Detection” section.
3.1 Plates are removed from incubators and equilibrated at room temperature for 15 minutes.
3.2 Thaw the CellTiter Glo reagents and allow to equilibrate to room temperature before the experiment.
3.3 Add 40 μL of CellTiter-Glo reagent into each well (at 1:1 to culture medium). Then place the plates at room temperature for 30 min followed by reading on EnVision.
4.1 Inhibition activity is calculated following the formula below:
% Inhibition=100×(LumHC−LumSample)/(LumHC−LumLC) • where HC is obtained from cells treated with 0.1% DMSO only; and LC is obtained from culture medium only.
4.2 2. Calculate the IC50 by fitting the Curve using Xlfit (v5.3.1.3), equation 201.
Y=Bottom+(Top−Bottom)/(1+10^((Log IC50−X)*HillSlope))

[3] = molecular target: T4, EGFR exon 20 ASV Ins V769_D770 (Ba/F3 cells) (Homo sapiens, UniProt P00533, INS769ASV); assay: Inhibitor activity on EGFR-dependent cell growth (CellTiter-Glo, 72 h), Ba/F3 EGFR exon 20 ASV Ins; details: read-out: BaF3 ASV IC50
T4 construct: expressed in transfected cells; host or cells: Ba/F3 (murine pro-B cells), retroviral transduction, puromycin selection, IL3-independent pool
Outline: as §1

T4 sequence (P00533 with tags, fused parts or gaps INS769ASV): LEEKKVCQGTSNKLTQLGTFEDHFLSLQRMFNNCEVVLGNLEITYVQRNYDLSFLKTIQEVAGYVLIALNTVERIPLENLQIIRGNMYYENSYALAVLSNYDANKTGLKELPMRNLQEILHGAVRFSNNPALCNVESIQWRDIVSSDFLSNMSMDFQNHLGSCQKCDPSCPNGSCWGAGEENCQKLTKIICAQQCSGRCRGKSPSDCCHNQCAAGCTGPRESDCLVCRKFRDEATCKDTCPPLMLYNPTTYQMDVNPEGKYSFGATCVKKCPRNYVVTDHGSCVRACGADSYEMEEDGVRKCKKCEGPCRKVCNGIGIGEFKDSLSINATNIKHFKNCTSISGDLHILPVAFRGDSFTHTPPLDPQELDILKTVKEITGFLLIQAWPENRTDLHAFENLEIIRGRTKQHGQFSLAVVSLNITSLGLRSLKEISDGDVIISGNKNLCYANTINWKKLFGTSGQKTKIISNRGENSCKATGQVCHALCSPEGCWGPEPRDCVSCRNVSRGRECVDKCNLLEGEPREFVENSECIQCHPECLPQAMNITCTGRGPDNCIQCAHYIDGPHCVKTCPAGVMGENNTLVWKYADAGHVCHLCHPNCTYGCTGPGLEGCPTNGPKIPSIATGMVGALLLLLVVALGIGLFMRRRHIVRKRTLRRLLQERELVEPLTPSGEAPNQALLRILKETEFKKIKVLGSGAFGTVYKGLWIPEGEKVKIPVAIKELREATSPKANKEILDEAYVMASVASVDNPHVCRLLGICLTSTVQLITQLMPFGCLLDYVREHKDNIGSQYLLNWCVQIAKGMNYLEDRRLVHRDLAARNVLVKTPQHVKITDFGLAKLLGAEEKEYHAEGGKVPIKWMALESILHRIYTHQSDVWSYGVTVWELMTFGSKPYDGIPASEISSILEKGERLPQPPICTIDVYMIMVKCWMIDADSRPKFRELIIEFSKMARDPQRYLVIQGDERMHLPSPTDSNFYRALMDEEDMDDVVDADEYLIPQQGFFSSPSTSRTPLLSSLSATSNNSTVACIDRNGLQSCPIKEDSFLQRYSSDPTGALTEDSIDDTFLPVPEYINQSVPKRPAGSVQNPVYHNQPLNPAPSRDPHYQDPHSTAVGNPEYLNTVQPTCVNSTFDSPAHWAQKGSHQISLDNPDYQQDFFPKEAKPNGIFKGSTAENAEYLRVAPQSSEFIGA
T2 sequence (P00533 with tags, fused parts or gaps INS770SVD): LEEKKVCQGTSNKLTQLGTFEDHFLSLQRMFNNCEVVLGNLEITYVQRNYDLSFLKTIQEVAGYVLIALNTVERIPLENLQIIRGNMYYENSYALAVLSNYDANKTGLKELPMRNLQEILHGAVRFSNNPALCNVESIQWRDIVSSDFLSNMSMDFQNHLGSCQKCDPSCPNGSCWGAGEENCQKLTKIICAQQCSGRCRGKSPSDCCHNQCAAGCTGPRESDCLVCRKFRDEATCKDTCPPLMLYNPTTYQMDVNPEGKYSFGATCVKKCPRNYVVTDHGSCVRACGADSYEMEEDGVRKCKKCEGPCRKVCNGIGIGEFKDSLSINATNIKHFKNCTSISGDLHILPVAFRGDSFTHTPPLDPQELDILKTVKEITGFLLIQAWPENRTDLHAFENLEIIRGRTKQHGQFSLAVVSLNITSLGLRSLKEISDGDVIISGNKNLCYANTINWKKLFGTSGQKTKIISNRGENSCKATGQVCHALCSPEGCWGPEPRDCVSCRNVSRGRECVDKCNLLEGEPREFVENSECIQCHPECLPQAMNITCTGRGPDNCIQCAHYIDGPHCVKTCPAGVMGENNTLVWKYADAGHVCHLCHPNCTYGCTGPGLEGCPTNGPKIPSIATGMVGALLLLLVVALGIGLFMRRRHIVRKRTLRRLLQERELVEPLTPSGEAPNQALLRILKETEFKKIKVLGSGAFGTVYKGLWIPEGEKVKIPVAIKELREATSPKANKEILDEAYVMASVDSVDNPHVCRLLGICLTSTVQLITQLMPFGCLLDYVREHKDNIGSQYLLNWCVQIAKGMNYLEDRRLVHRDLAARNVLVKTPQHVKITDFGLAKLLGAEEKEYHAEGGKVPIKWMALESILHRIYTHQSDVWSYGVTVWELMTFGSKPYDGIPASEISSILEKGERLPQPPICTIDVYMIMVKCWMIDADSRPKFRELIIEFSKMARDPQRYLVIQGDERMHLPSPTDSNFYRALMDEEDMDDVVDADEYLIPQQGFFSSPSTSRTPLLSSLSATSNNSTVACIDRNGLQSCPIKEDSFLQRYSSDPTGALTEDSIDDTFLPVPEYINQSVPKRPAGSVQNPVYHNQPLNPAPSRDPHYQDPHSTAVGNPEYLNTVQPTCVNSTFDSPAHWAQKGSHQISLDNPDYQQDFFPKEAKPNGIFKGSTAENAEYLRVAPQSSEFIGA
T3 sequence (P00533 with tags, fused parts or gaps INS770NPG): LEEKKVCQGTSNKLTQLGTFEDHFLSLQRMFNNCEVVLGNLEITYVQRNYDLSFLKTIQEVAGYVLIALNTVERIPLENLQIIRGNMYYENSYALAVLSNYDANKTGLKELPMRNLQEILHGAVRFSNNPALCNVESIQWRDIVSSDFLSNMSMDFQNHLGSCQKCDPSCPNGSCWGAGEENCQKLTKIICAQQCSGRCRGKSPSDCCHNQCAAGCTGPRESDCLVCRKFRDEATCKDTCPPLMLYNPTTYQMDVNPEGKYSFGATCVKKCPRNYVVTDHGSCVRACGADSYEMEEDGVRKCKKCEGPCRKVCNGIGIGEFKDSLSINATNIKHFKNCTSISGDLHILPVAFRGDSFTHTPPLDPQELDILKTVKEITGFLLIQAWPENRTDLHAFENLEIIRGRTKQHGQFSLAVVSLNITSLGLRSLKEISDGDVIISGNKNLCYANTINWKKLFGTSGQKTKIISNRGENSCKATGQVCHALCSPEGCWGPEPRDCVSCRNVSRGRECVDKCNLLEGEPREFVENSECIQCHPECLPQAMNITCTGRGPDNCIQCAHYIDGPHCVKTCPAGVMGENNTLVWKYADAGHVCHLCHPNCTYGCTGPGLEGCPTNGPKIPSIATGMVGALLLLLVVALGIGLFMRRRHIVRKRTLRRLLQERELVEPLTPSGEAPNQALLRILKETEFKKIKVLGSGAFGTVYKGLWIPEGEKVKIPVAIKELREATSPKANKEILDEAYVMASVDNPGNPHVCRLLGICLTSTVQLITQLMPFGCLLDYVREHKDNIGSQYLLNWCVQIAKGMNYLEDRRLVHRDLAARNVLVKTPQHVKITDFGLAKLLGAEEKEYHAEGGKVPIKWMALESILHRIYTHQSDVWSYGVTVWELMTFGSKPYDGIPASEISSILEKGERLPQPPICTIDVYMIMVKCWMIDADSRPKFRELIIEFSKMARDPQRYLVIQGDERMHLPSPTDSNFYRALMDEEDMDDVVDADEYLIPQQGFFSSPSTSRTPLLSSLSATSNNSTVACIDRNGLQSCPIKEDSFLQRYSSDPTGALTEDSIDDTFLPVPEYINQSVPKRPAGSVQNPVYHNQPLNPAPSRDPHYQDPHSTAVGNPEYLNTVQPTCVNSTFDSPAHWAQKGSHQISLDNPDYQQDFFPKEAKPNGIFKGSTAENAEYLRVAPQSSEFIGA
T1 sequence (P00533 25-1210): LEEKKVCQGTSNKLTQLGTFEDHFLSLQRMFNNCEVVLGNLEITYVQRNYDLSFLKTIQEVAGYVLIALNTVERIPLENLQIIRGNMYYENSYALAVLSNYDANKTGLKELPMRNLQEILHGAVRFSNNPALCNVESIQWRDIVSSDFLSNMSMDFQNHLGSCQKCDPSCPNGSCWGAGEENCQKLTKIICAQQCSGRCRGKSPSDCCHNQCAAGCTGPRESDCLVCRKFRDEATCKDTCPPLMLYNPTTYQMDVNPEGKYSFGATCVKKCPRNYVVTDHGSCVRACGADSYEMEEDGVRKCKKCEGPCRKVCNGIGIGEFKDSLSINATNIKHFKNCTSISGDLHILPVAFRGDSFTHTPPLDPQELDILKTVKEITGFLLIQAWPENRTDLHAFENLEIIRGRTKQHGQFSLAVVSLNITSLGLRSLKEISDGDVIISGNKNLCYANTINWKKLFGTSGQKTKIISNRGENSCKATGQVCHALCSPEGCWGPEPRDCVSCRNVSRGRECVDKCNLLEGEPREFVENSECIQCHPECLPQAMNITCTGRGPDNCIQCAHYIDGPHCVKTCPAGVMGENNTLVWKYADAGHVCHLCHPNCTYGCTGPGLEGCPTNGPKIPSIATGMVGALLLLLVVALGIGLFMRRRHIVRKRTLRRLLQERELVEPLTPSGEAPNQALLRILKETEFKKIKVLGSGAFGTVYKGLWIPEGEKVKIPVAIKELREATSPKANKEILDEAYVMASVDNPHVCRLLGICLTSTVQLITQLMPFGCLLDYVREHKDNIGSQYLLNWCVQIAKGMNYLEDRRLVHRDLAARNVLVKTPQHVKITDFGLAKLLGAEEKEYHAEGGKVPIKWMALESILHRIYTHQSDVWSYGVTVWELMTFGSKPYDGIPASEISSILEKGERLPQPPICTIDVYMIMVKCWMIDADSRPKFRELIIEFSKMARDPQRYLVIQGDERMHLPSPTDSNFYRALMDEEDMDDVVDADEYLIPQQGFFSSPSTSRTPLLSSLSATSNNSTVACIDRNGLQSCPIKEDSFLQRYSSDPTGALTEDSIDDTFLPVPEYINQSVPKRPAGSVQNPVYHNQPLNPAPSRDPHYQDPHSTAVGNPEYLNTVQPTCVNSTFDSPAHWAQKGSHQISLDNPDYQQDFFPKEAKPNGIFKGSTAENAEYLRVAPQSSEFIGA

Row | IC50 (EGFR WT (Ba/F3 cells)) | IC50 [1] | IC50 [2] | IC50 [3] | Structure (SMILES)
1 | 100 to 1000 nM | < 100 nM | < 100 nM | 100 to 1000 nM | COc1c(F)cccc1Nc1c(-c2ccnc3c(N)noc23)[nH]c2c1C(=O)NCC2 [compound 523, 2-{3-amino-[1,2]oxazolo[4,5-b]pyridin-7-yl}-3-[(3-fluoro-2-methoxyphenyl)amino]-1H,5H,6H,7H-pyrrolo[3,2-c]pyridin-4-one; trifluoroacetic acid]
2 | 100 to 1000 nM | < 100 nM | < 100 nM | < 100 nM | COc1c(Cl)cccc1Nc1c(-c2ccnc(Nc3ccn(CC(C)(C)O)n3)n2)[nH]c2c1C(=O)NCC2 [compound 537, 3-[(3-chloro-2-methoxyphenyl)amino]-2-(2-{[1-(2-hydroxy-2-methylpropyl)pyrazol-3-yl]amino}pyrimidin-4-yl)-1H,5H,6H,7H-pyrrolo[3,2-c]pyridin-4-one]
3 | 100 to 1000 nM | < 100 nM | < 100 nM | < 100 nM | CCn1nncc1Nc1nccc(-c2[nH]c3c(c2Nc2cccc(Cl)c2OC)C(=O)NCC3)n1 [compound 538, 3-[(3-chloro-2-methoxyphenyl)amino]-2-{2-[(3-ethyl-1,2,3-triazol-4-yl)amino]pyrimidin-4-yl}-1H,5H,6H,7H-pyrrolo[3,2-c]pyridin-4-one]
4 | > 1000 nM | 100 to 1000 nM | 100 to 1000 nM | 100 to 1000 nM | COc1c(Cl)cccc1Nc1c(-c2ccnc(Nc3cnnn3CS(C)(=O)=O)n2)[nH]c2c1C(=O)NCC2 [compound 539, 3-[(3-chloro-2-methoxyphenyl)amino]-2-(2-{[3-(methanesulfonylmethyl)-1,2,3-triazol-4-yl]amino}pyrimidin-4-yl)-1H,5H,6H,7H-pyrrolo[3,2-c]pyridin-4-one]
5 | > 1000 nM | > 1000 nM | 100 to 1000 nM | > 1000 nM | COc1c(Cl)cccc1Nc1c(-c2ccnc(-c3ccnnc3)n2)[nH]c2c1C(=O)NCC2 [compound 542, 3-[(3-chloro-2-methoxyphenyl)amino]-2-[2-(pyridazin-4-yl)pyrimidin-4-yl]-1H,5H,6H,7H-pyrrolo[3,2-c]pyridin-4-one]
6 | > 1000 nM | < 100 nM | < 100 nM | 100 to 1000 nM | COc1c(Cl)cccc1Nc1c(-c2ccnc(-c3cnn(C)n3)n2)[nH]c2c1C(=O)NCC2 [compound 543, 3-[(3-chloro-2-methoxyphenyl)amino]-2-[2-(2-methyl-1,2,3-triazol-4-yl)pyrimidin-4-yl]-1H,5H,6H,7H-pyrrolo[3,2-c]pyridin-4-one]
7 | > 1000 nM | 100 to 1000 nM | < 100 nM | 100 to 1000 nM | COc1c(Cl)cccc1Nc1c(-c2ccnc(-c3cn(C)nn3)n2)[nH]c2c1C(=O)NCC2 [compound 545, 3-[(3-chloro-2-methoxyphenyl)amino]-2-[2-(1-methyl-1,2,3-triazol-4-yl)pyrimidin-4-yl]-1H,5H,6H,7H-pyrrolo[3,2-c]pyridin-4-one]
8 | > 1000 nM | 100 to 1000 nM | 100 to 1000 nM | > 1000 nM | COc1c(Cl)cccc1Nc1c(-c2ccnc(-c3ccncn3)n2)[nH]c2c1C(=O)NCC2 [compound 546, 2-{[2,4′-bipyrimidin]-4-yl}-3-[(3-chloro-2-methoxyphenyl)amino]-1H,5H,6H,7H-pyrrolo[3,2-c]pyridin-4-one]
9 | 100 to 1000 nM | < 100 nM | < 100 nM | < 100 nM | COc1c(F)cccc1Nc1c(-c2ccnc(Nc3cnnn3C)n2)[nH]c2c1C(=O)NCC2 [compound 591, 3-[(3-fluoro-2-methoxyphenyl)amino]-2-{2-[(3-methyl-1,2,3-triazol-4-yl)amino]pyrimidin-4-yl}-1H,5H,6H,7H-pyrrolo[3,2-c]pyridin-4-one]
10 | > 1000 nM | > 1000 nM | > 1000 nM | > 1000 nM | COc1c(Cl)cccc1Nc1c(-c2ccnc(Nc3nnn(C)c3C)n2)[nH]c2c1C(=O)NCC2 [compound 607, 3-[(3-chloro-2-methoxyphenyl)amino]-2-{2-[(1,5-dimethyl-1,2,3-triazol-4-yl)amino]pyrimidin-4-yl}-1H,5H,6H,7H-pyrrolo[3,2-c]pyridin-4-one]
